Data taken from US7989478B2, “Cinnamoyl compound and use of the same” (Sumitomo Chemical Company, Limited, priority 2003, dated 2011).

Assays:
[1] = tested on: mRNA of Type I collagen gene in renal glomerulus; assay: mRNA of Type I collagen gene in renal glomerulus of anti-Thy-1 antibody-administered rats (improvement of chronic renal failure); type: in vivo, rat; settings: 15 mg/kg/day orally for 7 days in corn oil; for ability to improve chronic renal failure: Example 5, anti-Thy-1 antibody rats; for mRNA of collagen gene: Type I collagen amount/GAPDH amount, renal cortex, anti-Thy-1 antibody +, Wistar rats
Protocol: IgG was purified from an ascites-lyophilized powder (CEDARLANE, lot No. 05122) containing an anti-rat CD90 (Thy1.1) monoclonal antibody using MAbTrap kit (Amersham Biosciences, catalogue No. 17-1128-01).
6 ml of a binding buffer was added to 3 ml of ascites to sufficiently recover it, and this was passed through a 0.22 μm filter. The resulting solution was applied to a pre-bufferized column, and the column was then washed with 10 ml of a binding buffer. Thereafter, the column was eluted with 5 ml of an elution buffer. From washing, each 1 ml was fractionated, and the protein concentration of each fraction was measured using bovine serum albumin as a standard. A single peak was confirmed from an elution pattern, and an IgG fraction was dialyzed against a physiological saline overnight at 4° C. The protein concentration of the resulting anti-Thy-1 antibody (IgG) was calculated.
The present compounds represented by the compound numbers (28a) (hereinafter, referred to as the present compound (28a)), the present compound represented by a compound number (30a) (hereinafter, referred to as the present compound (30a)), the present compound represented by a compound number (33a) (hereinafter, referred to as the present compound (33a)), the present compound represented by a compound number (10e) (hereinafter, referred to as the present compound (10e)), the present compound represented by a compound number (18e) (hereinafter referred to as the present compound (18e)), the present compound represented by a compound number (31e) (hereinafter, referred to as the present compound (31e)) and a corn oil which is a medium were weighed. These were mixed using a mortar and a pestle to prepare a […]. Using four 7-week old male Wistar rats [Nippon Charles River] per group, 60 μg/ml of the anti-Thy-1 antibody (IgG) or a physiological saline was intravenously injected via a tail vein at 5 ml/kg. […] A dose of the present compound was 15 mg/kg/day.
On the next day of final administration, a rat reared as described in the above (2) was slaughtered by collection of whole blood, and kidneys were isolated. A whole RNA was separated from the cortex of the isolated kidney using RNeasy Mini Kit (QIAGEN, catalogue No. 74106). To 5 μl (50 ng) of the separated whole RNA were added 1 μl of 20 μM oligo dT and 4 μl of RNase-free distilled water. After the mixture was incubated at 65° C. for 5 minutes, it was immediately ice-cooled. To 10 μl of the solution were added 4 μl of 5× buffer, 2.4 μl of MgCl2, 1 μl of 10 mM dNTP, 1 μl of RNasin, 1 μl of Improm II and 0.6 μl of RNase-free distilled water (all available from Promega), and a reverse transcription reaction was performed under the condition of at 25° C. for 5 minutes, at 42° C. for 1 hour, and at 70° C. for 15 minutes.
Into 5 μl of the reverse transcription reaction solution were mixed each 2 μl of each 1.25 pmol/μl of primers represented by SEQ ID NOS: 3 and 4, 1.25 μl of a probe (FAM-ctcgccttca tgcgcctgct agc-TAMRA) for detecting DNA of a Type I collagen gene represented by SEQ ID No:5, each 0.25 μl of Rodent GAPDH primers, 0.25 μl of a Rodent GAPDH probe, 12.5 μl of TaqMan Universal PCR Master Mix (all available from Applied Biosystem) and 1.5 μl of sterilized water in a well of Optical 96-Well Reaction Plate (Applied Biosystem, catalogue No. N801-0560). As a standard, in place of 5 μl of the reverse transcription reaction solution, each 5 μl of 500, 250, 125, 62.5, 31.25, 15.625 ng/μl rat renal cortex cDNA which had been prepared in advance was used. Thereafter, using Gene Amp 7900 (Applied Biosystem), PCR was performed under the condition of at 50° C. for 5 minutes, and 40 cycles in which one cycle is at 95° C. for 15 seconds and at 60° C. for 1 minute. […]

[2] = tested on: ability of TGF-β to promote transcription of a Type I collagen gene; assay: Inhibition of the ability of TGF-β to promote transcription of a Type I collagen gene (COL-Luc reporter gene assay); type: cell-based; settings: final concentration 1 μM; TGF-β added; normal human fetal skin fibroblast transfected with COL-Luc; 40 hours; read-out: Inhibition percentage
Protocol: 1×10^8 cells of a normal human fetal skin fibroblast (Clontech, catalogue No. CC-2509) were cultured at 37° C. overnight under 5% CO2 atmosphere. After the cultured cells were washed with a sodium phosphate buffer (hereinafter, referred to as PBS) twice, 3 ml of PBS was added thereto and the cells were scraped away the wall of a vessel using a cell scraper (Nalgen, catalogue No. 179693). The scraped cells were collected by centrifugation (1,500 rpm, 4° C., 15 min), and these were suspended in 20 ml of PBS and centrifuged again. To the resulting precipitates were added 11 ml of Solution 2 and 4.8 μl of pronase of DNA Extraction Kit (Stratagene, catalogue No. 200600). After shaken at 60° C. for 1 hour, the resulting mixture was allowed to stand in ice for 10 minutes. Then, 4 ml of Solution 3 of the kit was added to the mixture. After mixed, the mixture was allowed to stand in ice for 5 minutes and then centrifuged (3,000 rpm, 4° C., 15 min) to recover a supernatant. To the recovered supernatant was added 2 μl of RNase per 1 ml of the supernatant and the mixture was allowed to stand at 37° C. for 15 minutes. To the mixture was added 2-fold volume of ethanol. After mixed, a white thread-like substance (genomic DNA) appeared and the substance was recovered. The recovered genomic DNA was washed with 70% ethanol and then air-dried. The air-dried genomic DNA was dissolved in 500 μl of 10 mM Tris-HCl, 1 mM EDTA (pH 8.0) (hereinafter, referred to as TE).
The resulting genomic DNA solution (the amount equivalent to 1 μg of genomic DNA), each 1 μl (10 pmol/μl) of an oligonucleotide consisting of the nucleotide sequence represented by SEQ ID No:1 and an oligonucleotide consisting of the nucleotide sequence represented by SEQ ID No:2, 29 μL of distilled water, 5 μl of the buffer attached to TaKaRa LA Taq (TAKARA SHUZO, catalogue No. RR002A), 5 μL of a Mg^2+ solution, 5 μL of a dNTP mixture and 0.5 μl of TaKaRa LA Taq (TAKARA SHUZO, catalogue No. RR002A) were mixed. After the resulting mixed solution was incubated at 94° C. for 5 minutes, the mixed solution was subjected to 30 cycles, in which one cycle consists of incubation at 94° C. for 1 minute, at 60° C. for 1 minute and then at 72° C. for 1 minute. The mixed solution was electrophoresed on a 2% agarose gel to recover about 0.5 kb of a DNA. The recovered DNA was treated with phenol/chloroform and then precipitated with ethanol to recover the DNA. The resulting DNA was dissolved in ultrapure water. To this solution were added 2.5 μl of NheI and 2.5 μl of HindIII, and then incubated at 37° C. for 3 hours. Then, the solution was electrophoresed on a 2% agarose gel to recover about 3.5 kb of a DNA. The recovered DNA was precipitated with ethanol to recover again the DNA (hereinafter, referred to as the collagen promoter DNA).
On the other hand, the vector pGL3 (Promega, catalogue No. E1751) having the nucleotide sequence encoding firefly luciferase was digested with NheI and HindIII, and then subjected to agarose gel electrophoresis as described above to recover about 5 kb of a DNA. The recovered DNA was precipitated with ethanol to recover the DNA again. To the recovered DNA were added 44 μl of distilled water, 5 μl of Buffer attached to Alkaline Phosphatase (TAKARA SHUZO, catalogue No. 2120A) and 1 μl of Alkaline Phosphatase (TAKARA SHUZO, catalogue No. 2120A). The mixed solution was incubated at 65° C. for 30 minutes. Then, the mixed solution was treated with phenol/chloroform twice, and precipitated with ethanol to recover the DNA (hereinafter referred to as the Luc vector DNA). Then, after about 20 ng of the collagen promoter DNA and about 20 ng of the Luc vector DNA were mixed, the same amount of a DNA Ligation kit Ver2 enzyme solution was added and this was incubated overnight at 16° C. To the mixed solution was added Escherichia coli 5Hdα (TOYOBO, catalogue No. DNA-903), this was allowed to stand in ice for 30 minutes, and then incubated at 42° C. for 45 seconds. […]

[3] = Table 3, control group 3.4, normal group 1.9, test results p < 0.05
[4] = Table 4, control group 5.6, normal group 1.7, test results p < 0.01

Row | Compound | ability to improve chronic renal failure [1] | mRNA of collagen gene [1, 3] | inhibition at 1 µM [2] [%] | mRNA of collagen gene [1, 4]
1 | COC(=O)CNC(=O)c1cccc(C=CC(=O)c2c(O)cc(C)[nH]c2=O)c1 [Compound No. (28a), 4-hydroxy-3-[3-[3-[[(methoxycarbonylmethyl)amino]carbonyl]phenyl]-1-oxo-2-propenyl]-6-methyl-2(1H)-pyridinone] | have the ability to improve chronic renal failure | 2.0 | ≥ 70 | –
2 | N#CCOc1cccc(C=CC(=O)c2c(O)c3ccccc3[nH]c2=O)c1 [Compound No. (10e), 4-hydroxy-3-[3-[3-(cyanomethoxy)phenyl]-1-oxo-2-propenyl]-2(1H)-quinolinone] | have the ability to improve chronic renal failure | – | ≥ 70 | 2.0
3 | COCCNC(=O)c1ccc(C=CC(=O)c2c(O)cc(C)[nH]c2=O)cc1 [Compound No. (33a), 4-hydroxy-3-[3-[4-[(2-methoxyethyl)aminocarbonyl]phenyl]-1-oxo-2-propenyl]-6-methyl-2(1H)-pyridinone] | have the ability to improve chronic renal failure | 2.4 | – | –
4 | COCCNC(=O)c1ccc(C=CC(=O)c2c(O)c3ccccc3[nH]c2=O)cc1 [Compound No. (31e), 4-hydroxy-3-[3-[4-[(2-methoxyethyl)aminocarbonyl]phenyl]-1-oxo-2-propenyl]-2(1H)-quinolinone] | have the ability to improve chronic renal failure | – | ≥ 70 | 3.3
5 | COCC(=O)Nc1cccc(C=CC(=O)c2c(O)c3ccccc3[nH]c2=O)c1 [Compound No. (18e), 4-hydroxy-3-[3-[3-(methoxyacetylamino)phenyl]-1-oxo-2-propenyl]-2(1H)-quinolinone] | have the ability to improve chronic renal failure | – | ≥ 70 | 1.9
6 | COC(=O)CNC(=O)c1ccc(C=CC(=O)c2c(O)cc(C)[nH]c2=O)cc1 [Compound No. (30a), 4-hydroxy-3-[3-[4-[[(methoxycarbonylmethyl)amino]carbonyl]phenyl]-1-oxo-2-propenyl]-6-methyl-2(1H)-pyridinone] | have the ability to improve chronic renal failure | 2.4 | – | –
